We go through 27 compounds from patent US20240390298A1, “CYCLOHEXYL BETA-HYDROXY ALKYL AMINES AND MEDICAL USES THEREOF” (ATROGI AB, priority 2021, published 2024).

Molecules are shown by their SMILES.

For experiment [1], the system named is L6-myotubes. Kind of experiment: Measurement of intracellular cAMP levels in differentiated L6 cells (alpha screen cAMP kit), compared to isoproterenol. It counts as cell-based. To be noted: agonist 1×10^−5 M, 15 min; for Emax at 10 µM: Rattus norvegicus, L6, 0.25 h, read-out: Biological example 2: intracellular cAMP levels, activity compared to that of isoproterenol. The procedure:
(§1) L6-myoblasts were grown in Dulbecco's Modified Eagle's Medium (DMEM) containing 1 g/L glucose supplemented with 10% fetal bovine serum, 2 mM L-Glutamine, 50 U/mL penicillin, 50 μg/mL streptomycin and 10 mM HEPES. Cells were plated at 1×10^5 cells per mL in 24-well plates. After reaching 90% confluence the cells were grown in medium containing 2% FBS for 7 days where upon cells differentiated into myotubes.
Differentiated cells were serum-starved overnight and stimulated with an agonist, final concentration 1×10^−5 M, for 15 min in stimulation buffer (HBSS supplemented with 1% BSA, 5 mM HEPES and 1 mM IBMX, pH 7.4). The medium was aspirated and 100 μL of 95% EtOH was added to each well of the 24-well plate and cells were kept at −20° C. overnight. The EtOH was allowed to evaporate and 500 μL of lysis buffer (1% BSA, 5 mM HEPES and 0.3% Tween-20, pH 7.4) was added to each well. The plate was kept at −80° C. for 30 min and then at −20° C. until the day of detection when the samples were thawed. Intracellular cAMP levels were detected using an alpha screen cAMP kit (6760635D from Perkin Elmer). The activity for each compound is compared to that of isoproterenol.

The test system of experiment [2] is L6-myotubes. Briefly: Glucose uptake in differentiated L6-myotubes (3H-2-deoxyglucose), compared to isoproterenol. It counts as cell-based. Conditions: agonist 1×10^−5 M, 50 nM 3H-2-deoxyglucose; for Emax at 10 µM: read-out: Biological example 1: glucose uptake, activity compared to that of isoproterenol. How it is done:
as §1
Differentiated L6-myotubes were serum-starved overnight in medium containing 0.5% fatty-acid free BSA and stimulated with an agonist, with a final concentration of 1×10^−5 M. After 1 h 40 min the cells were washed with warm glucose free medium or PBS twice and another portion of agonist was added to the glucose free medium. After 20 min the cells were exposed to 50 nM ^3H-2-deoxyglucose for 10 min before washed with ice cold glucose free medium or PBS three times and lysed with 0.2 M NaOH, 400 μL/well, for 1 h at 60° C. The cell lysate was mixed with 4 mL scintillation buffer (Emulsifier Safe, Perkin Elmer) and the radioactivity was detected in a β-counter (Tri-Carb 4810TR, Perkin Elmer). The activity for each compound is compared to that of isoproterenol.

Turning to `CO[C@@H]1CCC[C@H](C(C)(C)NC[C@H](O)c2cccc(F)c2)C1` (single isomer, unassigned) [Example 119], the Emax at 10 µM in experiment [1] was under 25%. In addition, the “Biological example 1: glucose uptake, activity compared to that of isoproterenol” value in experiment [2] is “+ + +”.
Take `CO[C@H]1CCC[C@@H](C(C)(C)NC[C@H](O)c2cccc(F)c2)C1` (single isomer, unassigned) [Example 120]: the Emax at 10 µM in experiment [1] was under 25%. Also, the “Biological example 1: glucose uptake, activity compared to that of isoproterenol” value in experiment [2] is given as “+ + +”.
The corresponding values for `CO[C@@H]1CCC[C@H](C(C)(C)NC[C@H](O)c2cncc(F)c2)C1` (single isomer, unassigned) [Example 121] are under 25% and “+ +”.
Take `CO[C@H]1CCC[C@@H](C(C)(C)NC[C@H](O)c2cncc(F)c2)C1` (single isomer, unassigned) [Example 122]: the “Biological example 2: intracellular cAMP levels, activity compared to that of isoproterenol” value in experiment [1] was “+ +”. Further, the “Biological example 1: glucose uptake, activity compared to that of isoproterenol” value in experiment [2] was “+ + +”.
Consider `CO[C@H]1CC[C@@H](CNC[C@H](O)c2cccc(F)c2)CC1` [Example 1, (R)-1-(3-Fluorophenyl)-2-((((1s,4S)-4-methoxycyclohexyl)-methyl)amino)ethan-1-ol], for which the Emax at 10 µM in experiment [1] was under 25%. The “Biological example 1: glucose uptake, activity compared to that of isoproterenol” value in experiment [2] is on record as “+ +”.
As to `CO[C@H]1CC[C@@H](CNC[C@H](O)c2cncc(F)c2)CC1` [Example 2, (R)-1-(5-Fluoropyridin-3-yl)-2-((((1s,4S)-4-methoxycyclohexyl)-methyl)amino)ethan-1-ol], the Emax at 10 µM in experiment [1] was under 25%. Moreover, in experiment [2], the “Biological example 1: glucose uptake, activity compared to that of isoproterenol” value is reported as “+ +”.
As for `CO[C@H]1CC[C@H](CNC[C@H](O)c2cccc(F)c2)CC1` [Example 3, (R)-1-(3-Fluorophenyl)-2-((((1r,4R)-4-methoxycyclohexyl)methyl)amino)-ethan-1-ol], the Emax at 10 µM in experiment [1] was under 25%. Further, in experiment [2], the “Biological example 1: glucose uptake, activity compared to that of isoproterenol” value is recorded as “+ +”.
On to `CO[C@H]1CC[C@H](CNC[C@H](O)c2cncc(F)c2)CC1` [Example 4, (R)-1-(5-Fluoropyridin-3-yl)-2-((((1r,4R)-4-methoxycyclohexyl)-methyl)amino)ethan-1-ol], for which the Emax at 10 µM in experiment [1] is under 25%. In experiment [2], the “Biological example 1: glucose uptake, activity compared to that of isoproterenol” value is on record as “+ +”.
For the compound `CO[C@H]1CC[C@@H](C(C)(C)NC[C@H](O)c2cccc(F)c2)CC1` [Example 5, (R)-1-(3-Fluorophenyl)-2-((2-((1s,4S)-4-methoxycyclohexyl)propan-2-yl)-amino)ethan-1-ol], the Emax at 10 µM in experiment [1] and in experiment [2] was under 25% each time.
In the case of `CO[C@H]1CC[C@@H](C(C)(C)NC[C@H](O)c2cncc(F)c2)CC1` [Example 6, (R)-1-(5-fluoropyridin-3-yl)-2-((2-((1s,4S)-4-methoxycyclohexyl)propan-2-yl)amino)ethan-1-ol], the Emax at 10 µM in experiment [1] and in experiment [2] was under 25% in each case.
With `CO[C@H]1CC[C@H](C(C)(C)NC[C@H](O)c2cccc(F)c2)CC1` [Example 7], in experiment [1], the Emax at 10 µM is under 25%. In experiment [2], the “Biological example 1: glucose uptake, activity compared to that of isoproterenol” value is “+ + +”.
On to `CO[C@H]1CC[C@H](C(C)(C)NC[C@H](O)c2cncc(F)c2)CC1` [Example 8, (R)-1-(5-Fluoropyridin-3-yl)-2-((2-((1r,4R)-4-methoxycyclohexyl)propan-2-yl)amino)ethan-1-ol], for which, in experiment [1], the Emax at 10 µM was under 25%. For the same compound, in experiment [2], the “Biological example 1: glucose uptake, activity compared to that of isoproterenol” value was “+ + +”.
The corresponding values for `CO[C@H]1CC[C@@H](CCNC[C@H](O)c2cccc(F)c2)CC1` [Example 9, (R)-1-(3-Fluorophenyl)-2-((2-((1s,4S)-4-methoxycyclohexyl)ethyl)amino)-ethan-1-ol] are under 25% and “+ +”.
Taken in the same sequence, the figures for `CO[C@H]1CC[C@@H](CCNC[C@H](O)c2cncc(F)c2)CC1` [Example 10, (R)-1-(5-Fluoropyridin-3-yl)-2-((2-((1s,4S)-4-methoxycyclohexyl)ethyl)-amino)ethan-1-ol] were under 25% and “+ + +”.
For the compound `CO[C@H]1CC[C@H](CCNC[C@H](O)c2cccc(F)c2)CC1` [Example 11, (R)-1-(3-Fluorophenyl)-2-((2-((1r,4R)-4-methoxycyclohexyl)ethyl)amino)-ethan-1-ol], the Emax at 10 µM in experiment [1] was under 25%; in experiment [2] it was 25 to 50%.
Regarding `CO[C@H]1CC[C@H](CCNC[C@H](O)c2cncc(F)c2)CC1` [Example 12, (R)-1-(5-Fluoropyridin-3-yl)-2-((2-((1r,4R)-4-methoxycyclohexyl)ethyl)-amino)ethan-1-ol], the Emax at 10 µM in experiment [1] is under 25%. The “Biological example 1: glucose uptake, activity compared to that of isoproterenol” value in experiment [2] is recorded as “+ +”.
Taken in the same sequence, the figures for `CO[C@H]1CC[C@@H](CC(C)(C)NC[C@H](O)c2cccc(F)c2)CC1` [Example 13, (R)-1-(3-Fluorophenyl)-2-((1-((1s,4S)-4-methoxycyclohexyl)-2-methyl-propan-2-yl)amino)ethan-1-ol] were under 25% and “+ + +”.
For `CO[C@H]1CC[C@@H](CC(C)(C)NC[C@H](O)c2cncc(F)c2)CC1` [Example 14, (R)-1-(5-Fluoropyridin-3-yl)-2-((1-((1s,4S)-4-methoxycyclohexyl)-2-methylpropan-2-yl)amino)ethan-1-ol], the Emax at 10 µM in experiment [1] is under 25%. Also, the “Biological example 1: glucose uptake, activity compared to that of isoproterenol” value in experiment [2] was “+ + +”.
As for `CO[C@H]1CC[C@H](CC(C)(C)NC[C@H](O)c2cccc(F)c2)CC1` [Example 15, (R)-1-(3-Fluorophenyl)-2-((1-((1r,4R)-4-methoxycyclohexyl)-2-methyl-propan-2-yl)amino)ethan-1-ol], the Emax at 10 µM in experiment [1] was under 25%. Also, in experiment [2], the “Biological example 1: glucose uptake, activity compared to that of isoproterenol” value is “+ + +”.
Take `CO[C@H]1CC[C@H](CC(C)(C)NC[C@H](O)c2cncc(F)c2)CC1` [Example 16, (R)-1-(5-Fluoropyridin-3-yl)-2-((1-((1r,4R)-4-methoxycyclohexyl)-2-methyl-propan-2-yl)amino)ethan-1-ol]: the Emax at 10 µM in experiment [1] was under 25%. In addition, the “Biological example 1: glucose uptake, activity compared to that of isoproterenol” value in experiment [2] is “+ +”.
Turning to `COC1CCC(CCCNC[C@H](O)c2cccc(F)c2)CC1` (stereo partly drawn) [Example 17, (R)-1-(3-Fluorophenyl)-2-((3-((1r,4S)-4-methoxycyclohexyl)propyl)-amino)ethan-1-ol], the values for the Emax at 10 µM in experiment [1] and in experiment [2] were under 25% and 25 to 50%, respectively.
As to `COC1CCC(CCCNC[C@H](O)c2cncc(F)c2)CC1` (stereo partly drawn) [Example 18, (R)-1-(5-Fluoropyridin-3-yl)-2-((3-((1r,4S)-4-methoxycyclohexyl)propyl)-amino)ethan-1-ol], the Emax at 10 µM in experiment [1] and in experiment [2] was under 25% in each case.
Consider `CO[C@H]1CC[C@@H](CCCNC[C@H](O)c2cccc(F)c2)CC1` [Example 19, (R)-1-(3-Fluorophenyl)-2-((3-((1s,4R)-4-methoxycyclohexyl)propyl)amino)-ethan-1-ol], for which the “Biological example 2: intracellular cAMP levels, activity compared to that of isoproterenol” value in experiment [1] is “+ +”. Also, the “Biological example 1: glucose uptake, activity compared to that of isoproterenol” value in experiment [2] is recorded as “+ + +”.
For the compound `CO[C@H]1CC[C@@H](CCCNC[C@H](O)c2cncc(F)c2)CC1` [Example 20, (R)-1-(5-Fluoropyridin-3-yl)-2-((3-((1s,4R)-4-methoxycyclohexyl)propyl)-amino)ethan-1-ol], in experiment [1], the Emax at 10 µM was under 25%. In addition, the “Biological example 1: glucose uptake, activity compared to that of isoproterenol” value in experiment [2] was “+ + +”.
Taken in the same sequence, the figures for `CO[C@H]1CC[C@H](CCC(C)(C)NC[C@H](O)c2cccc(F)c2)CC1.Cl` [Example 21, (R)-1-(3-Fluorophenyl)-2-((4-((1r,4S)-4-methoxycyclohexyl)-2-methyl-butan-2-yl)amino)ethan-1-ol hydrochloride] were under 25% and “+ +”.
In the case of `COC(=O)[C@H]1CC[C@@H](C(C)(C)NC[C@H](O)c2cccc(F)c2)CC1` [Example 95, Methyl (1S,4s)-4-(2-(((R)-2-(3-Fluorophenyl)-2-hydroxyethyl)amino)-propan-2-yl)cyclohexane-1-carboxylate], the “Biological example 1: glucose uptake, activity compared to that of isoproterenol” value in experiment [2] is recorded as “+ + +”.
Still for that read-out and setting: the entry for `COC(=O)[C@H]1CC[C@@H](C(C)(C)NC[C@H](O)c2cncc(F)c2)CC1` [Example 96, Methyl (1S,4s)-4-(2-(((R)-2-(5-Fluoropyridin-3-yl)-2-hydroxyethyl)amino)-propan-2-yl)cyclohexane-1-carboxylate] is “+ +”.
